# Source: US20260273029A1, “DRY EYE TREATMENT” (Inoculus Ventures, LLC, priority 2022, published 2026)
# Columns and labels:
# [1] = tested on: Staphylococcus aureus biofilms; experiment: S. Aureus biofilm reduction in 96 well plate: 10 min treatment, crystal violet stain, optical density at 600 nm; type: cell-based, Staphylococcus aureus subsp. aureus Rosenbach (ATCC 29213); settings: for Reduction in Enzyme Effectiveness by preservative: 10 mg/mL α-amylase + preservative, FIG. 12A, 12B
# Experimental: • Step 1. Place a new CuveTip on the Photopette • Step 2. Turn on the Photopette and ensure the bluetooth has connected to the iPad. • Step 3. Open the App and set the measurement to collect at 600 nm (use ecoli setting for brevity). • Step 4. Zero the Photopette in DI water, and clean the tip with a chemwipe. • Step 5. Aseptically transfer 100 ml of the TSB citrate media (TSBC) to a flask. • Step 6. Aseptically transfer the overnight culture of Staphylococcus aureus subsp. aureus Rosenbach (ATCC 29213) in Tryptic Soy Broth to the TSB citrate media (TSBC) using a pipet until the culture is diluted to A600 of 0.02 (~2×10^8 CFU/ml) measured with the Photopette. • Step 7. Remove a sterile 96 well plate from the sterile packaging in the hood and place on the table. • Step 8. Set an 8 channel pipet for […] and attach sterile tips. • Step 9. Plate the desired number of wells with […] of the diluted culture. • Step 10. Cover the well plate and incubate overnight for 18 hrs at 37° C.
# Plate S. Aureus in all wells of a 96 tissue culture treated well plate. The well plate should incubate for 18 hrs at 37° C. before being assayed for biofilm formation.
# Carefully tilt plate and pipet all liquid from the wells by inserting the pipet tips in the bottom corner of the wells to remove non-adherent cells without disturbing the biofilm grown on the bottom of the well.
# Start a timer for 10 minutes when the first row is treated using an 8-channel pipette. Each row should be treated every 30 seconds making sure to gently release the composition in the corner of the well to not disturb the biofilm mechanically.
# After 10 min all fluid should be removed row by row every 30 seconds starting with Row 1. The fluid must be removed with gentle pipetting, with the plate at an angle, with the pipette in the corner to remove non-adherent cells without disturbing the biofilm grown on the bottom of the well.
# Add 50 μl of 0.1% crystal violet (CV) to stain adherent cells for all wells.
# Carefully rinse all wells by submerging the plate in a DI water bath to remove all remaining crystal violet.
# Dry the well plate and measure the optical density of the biofilms using a plate reader at 600 nm.
# Repeat the steps outlined in 1.2 and 1.3 for scheduled testing days on days 7, 14, 21, 28, and 35. For each day of testing scheduled at days 7, 14, 21, 28, and 35 a well plate of biofilm should be prepared the day before.
# The remaining biofilm density was assessed using a cell plate reader at 600 nm called an optical density 600 (OD600) measurement.
# Staphylococcus aureus biofilms were grown in 96 well (Corning Falcon) cell culture treated plates using a TSB broth supplemented with yeast extract, glucose, and sodium citrate to induce biofilm formation and incubated for 18 hours.
# Non-adherent cells were removed and the biofilms were treated with different solutions to test the ability to break down the Staph. aureus biofilms. Solutions with α-amylase were produced at 10 mg/mL using α-amylase from Aspergillus oryzae (Sigma-Aldrich Catalog #10065) ~30 U/mg.
# After 10 minutes of incubation non-adherent cells were removed and the residual biofilms were stained with crystal violet. The density of the remaining biofilm was measured at 600 nm using a Byonoy Absorbance 96 plate reader.
# Staphylococcus aureus biofilms were grown in 96 well (Crnming Falcon) cell culture treated plates using a TSB broth supplemented with yeast extract, glucose, and sodium citrate to induce biofilm formation and incubated for 18 hours. […]
# [2] = tested on: biofilm on the eyelid; experiment: Treatment of a human subject (Example 13): eyelid photographs and reported symptoms; type: in vivo; settings: daily Avenova
# From the text: All images are from the same subject at the Watson Dry Eye Center in Raleigh NC at the specified times. The images were reviewed retrospectively to determine if the visual signs of biofilm on the eyelid were removed by a composition of α-amylase from Aspergillus oryzae and 0.01% hypochlorous acid. It should be noted that from May 23, 2018-Nov. 20, 2020 the patient cleaned their eyes with just 0.01% hypochlorous acid in saline two times a day. After this, the patient used the novel composition of α-amylase from Aspergillus oryzae and 0.01% hypochlorous acid. The first composition was made from powdered α-amylase from Aspergillus oryzae and liquid 0.01% hypochlorous acid in saline right before application to the eyelid with a cotton swab. […] Dosage information is written on the timeline below.
# FIG. 1A and FIG. 1B are photographs depicting two different areas of an eye of the subject afflicted with blocked meibomian glands, shiny biofilm at the base of eyelashes, shine biofilm on eyelashes, and lash growth misdirection taken on May 23, 2018 (time 0). After the photos were taken, the subject was treated with Blephex and Intense Pulse Light Therapy for biofilm removal treating inflammation.
# Subject received a subsequent treatment session on Dec. 4, 2018. FIG. 2A and FIG. 2B are photographs depicting the two different areas of the eye of the subject on Dec. […]
compound,measurement,setting,value
sodium perborate [GenAqua/Dequest (sodium perborate)],Reduction in Enzyme Effectiveness by preservative,[1]; 10 min,No Reduction in Enzyme Effectiveness
"OCl [0.01% hypochlorous acid, hypochlorous acid]",inhibition of biofilm removal by the enzyme,"[1]; 0.01% hypochlorous acid with 10 mg/ml α-amylase and cofactors, FIG. 13",did not inhibit biofilm removal by the enzyme
same,biofilm reduction by the additive on its own,"[1]; without α-amylase, 10 min",slightly reduce the biofilm
same,biofilm at the eyelashes,"[2]; time 2 (June 18 2019), FIG. 3A",the biofilm continues to grow at the base of the eyelashes
same,biofilm at the eyelashes and eyelid,"[2]; time 3 (October 15 2019), FIGS. 4A and 4B",the shine biofilm remains at the eyelashes and inside the eyelid
OC[C@H]1O[C@H](O[C@H]2O[C@H](CO)[C@@H](O)[C@H](O)[C@H]2O)[C@H](O)[C@@H](O)[C@@H]1O [Trehalose],differences in the enzyme activity (break down of biofilms) between concentrations,"[1]; 3%, 6.8%, and 8% Trehalose solutions, α=0.05, FIG. 17",no significant differences
benzalkonium chloride [BAK (benzalkonium chloride) 0.01%],Reduction in Enzyme Effectiveness by preservative,[1]; 10 min,No Reduction in Enzyme Effectiveness
